CC(C)NC(=O)COc1cccc(-c2nc(Nc3ccc4[nH]ncc4c3)c3ccccc3n2)c1 [Belumosudil, 2-{3-[4-(1H-indazol-5-ylamino)-2-quinazolinyl]phenoxy}-N-(propan-2-yl) acetamide]
Weight decreased: Affected/At Risk (%) (Cohort 1 200 mg QD): (5.88%) | Weight increased: # Events (Cohort 1 200 mg QD): 9 | Weight increased: Affected/At Risk (Cohort 1 200 mg QD): 3/17 | Weight increased: Affected/At Risk (%) (Cohort 1 200 mg QD): (17.65%) | White blood cell count decreased: # Events (Cohort 1 200 mg QD): 1 | White blood cell count decreased: Affected/At Risk (Cohort 1 200 mg QD): 1/17 | White blood cell count decreased: Affected/At Risk (%) (Cohort 1 200 mg QD): (5.88%) | ALT/AST increased all grade, No. (Cohort 1 200 mg QD n=17): 11 | ALT/AST increased grade ≥3, No. (Cohort 1 200 mg QD n=17): 2 | Anemia grade ≥3, No. (Cohort 1 200 mg QD n=17): 2 | Any AE, No. of patients (Cohort 1 200 mg QD n=17): 17 | Cough all grade, No. (Cohort 1 200 mg QD n=17): 1 | Death, No. (Cohort 1 200 mg QD n=17): 0 | Diarrhea all grade, No. (Cohort 1 200 mg QD n=17): 6 | Drug-related AE, No. (Cohort 1 200 mg QD n=17): 8 | Drug-related SAE, No. (Cohort 1 200 mg QD n=17): 0 | Dyspnea all grade, No. (Cohort 1 200 mg QD n=17): 3 | Dyspnea grade ≥3, No. (Cohort 1 200 mg QD n=17): 1 | Fatigue all grade, No. (Cohort 1 200 mg QD n=17): 6 | Grade ≥3 AE, No. (Cohort 1 200 mg QD n=17): 9 | Headache all grade, No. (Cohort 1 200 mg QD n=17): 4 | Hyperglycemia grade ≥3, No. (Cohort 1 200 mg QD n=17): 2 | Hypertension all grade, No. (Cohort 1 200 mg QD n=17): 5 | Hypoxia grade ≥3, No. (Cohort 1 200 mg QD n=17): 1 | Lung infection or pneumonia grade ≥3, No. (Cohort 1 200 mg QD n=17): 1 | Nausea all grade, No. (Cohort 1 200 mg QD n=17): 6 | Peripheral edema all grade, No. (Cohort 1 200 mg QD n=17): 3 | SAE, No. (Cohort 1 200 mg QD n=17): 5 | URI all grade, No. (Cohort 1 200 mg QD n=17): 9 | Patients with relative dose intensity >95% (Cohort 2): 63% | Abdominal distension: # Events (Cohort 2 200 mg BID): 0 | Abdominal distension: Affected/At Risk (Cohort 2 200 mg BID): 0/16 | Abdominal distension: Affected/At Risk (%) (Cohort 2 200 mg BID): (0%) | Abdominal pain upper: # Events (Cohort 2 200 mg BID): 1 | Abdominal pain upper: Affected/At Risk (Cohort 2 200 mg BID): 1/16 | Abdominal pain upper: Affected/At Risk (%) (Cohort 2 200 mg BID): (6.25%) | Abdominal pain: # Events (Cohort 2 200 mg BID): 4 | Abdominal pain: Affected/At Risk (Cohort 2 200 mg BID): 2/16 | Abdominal pain: Affected/At Risk (%) (Cohort 2 200 mg BID): (12.5%) | Actinic keratosis: # Events (Cohort 2 200 mg BID): 1 | Actinic keratosis: Affected/At Risk (Cohort 2 200 mg BID): 1/16 | Actinic keratosis: Affected/At Risk (%) (Cohort 2 200 mg BID): (6.25%) | Acute kidney injury: # Events (Cohort 2 200 mg BID): 2 | Acute kidney injury: Affected/At Risk (Cohort 2 200 mg BID): 2/16 | Acute kidney injury: Affected/At Risk (%) (Cohort 2 200 mg BID): (12.5%) | Acute respiratory distress syndrome: # Events (Cohort 2 200 mg BID): 0 | Acute respiratory distress syndrome: Affected/At Risk (Cohort 2 200 mg BID): 0/16 | Acute respiratory distress syndrome: Affected/At Risk (%) (Cohort 2 200 mg BID): (0%) | Adrenal insufficiency: # Events (Cohort 2 200 mg BID): 0 | Adrenal insufficiency: Affected/At Risk (Cohort 2 200 mg BID): 0/16 | Adrenal insufficiency: Affected/At Risk (%) (Cohort 2 200 mg BID): (0%) | Alanine aminotransferase increased: # Events (Cohort 2 200 mg BID): 4 | Alanine aminotransferase increased: Affected/At Risk (Cohort 2 200 mg BID): 3/16 | Alanine aminotransferase increased: Affected/At Risk (%) (Cohort 2 200 mg BID): (18.75%) | Anaemia: # Events (Cohort 2 200 mg BID): 8 | Anaemia: Affected/At Risk (Cohort 2 200 mg BID): 4/16 | Anaemia: Affected/At Risk (%) (Cohort 2 200 mg BID): (25%) | Anal incontinence: # Events (Cohort 2 200 mg BID): 0 | Anal incontinence: Affected/At Risk (Cohort 2 200 mg BID): 0/16 | Anal incontinence: Affected/At Risk (%) (Cohort 2 200 mg BID): (0%) | Anxiety: # Events (Cohort 2 200 mg BID): 3 | Anxiety: Affected/At Risk (Cohort 2 200 mg BID): 2/16 | Anxiety: Affected/At Risk (%) (Cohort 2 200 mg BID): (12.5%) | Arthralgia: # Events (Cohort 2 200 mg BID): 1 | Arthralgia: Affected/At Risk (Cohort 2 200 mg BID): 1/16 | Arthralgia: Affected/At Risk (%) (Cohort 2 200 mg BID): (6.25%) | Aspartate aminotransferase increased: # Events (Cohort 2 200 mg BID): 2 | Aspartate aminotransferase increased: Affected/At Risk (Cohort 2 200 mg BID): 2/16 | Aspartate aminotransferase increased: Affected/At Risk (%) (Cohort 2 200 mg BID): (12.5%) | Asthenia: # Events (Cohort 2 200 mg BID): 1 | Asthenia: Affected/At Risk (Cohort 2 200 mg BID): 1/16 | Asthenia: Affected/At Risk (%) (Cohort 2 200 mg BID): (6.25%) | Atelectasis: # Events (Cohort 2 200 mg BID): 0 | Atelectasis: Affected/At Risk (Cohort 2 200 mg BID): 0/16 | Atelectasis: Affected/At Risk (%) (Cohort 2 200 mg BID): (0%) | Back pain: # Events (Cohort 2 200 mg BID): 2 | Back pain: Affected/At Risk (Cohort 2 200 mg BID): 2/16 | Back pain: Affected/At Risk (%) (Cohort 2 200 mg BID): (12.5%) | Balance disorder: # Events (Cohort 2 200 mg BID): 1 | Balance disorder: Affected/At Risk (Cohort 2 200 mg BID): 1/16 | Balance disorder: Affected/At Risk (%) (Cohort 2 200 mg BID): (6.25%) | Basal cell carcinoma: # Events (Cohort 2 200 mg BID): 1 | Basal cell carcinoma: Affected/At Risk (Cohort 2 200 mg BID): 1/16 | Basal cell carcinoma: Affected/At Risk (%) (Cohort 2 200 mg BID): (6.25%) | Benign prostatic hyperplasia: # Events (Cohort 2 200 mg BID): 0 | Benign prostatic hyperplasia: Affected/At Risk (Cohort 2 200 mg BID): 0/16 | Benign prostatic hyperplasia: Affected/At Risk (%) (Cohort 2 200 mg BID): (0%) | Blepharitis: # Events (Cohort 2 200 mg BID): 0 | Blepharitis: Affected/At Risk (Cohort 2 200 mg BID): 0/16 | Blepharitis: Affected/At Risk (%) (Cohort 2 200 mg BID): (0%) | Blister: # Events (Cohort 2 200 mg BID): 3 | Blister: Affected/At Risk (Cohort 2 200 mg BID): 2/16 | Blister: Affected/At Risk (%) (Cohort 2 200 mg BID): (12.5%) | Blood alkaline phosphatase increased: # Events (Cohort 2 200 mg BID): 1 | Blood alkaline phosphatase increased: Affected/At Risk (Cohort 2 200 mg BID): 1/16 | Blood alkaline phosphatase increased: Affected/At Risk (%) (Cohort 2 200 mg BID): (6.25%) | Blood chloride decreased: # Events (Cohort 2 200 mg BID): 1 | Blood chloride decreased: Affected/At Risk (Cohort 2 200 mg BID): 1/16 | Blood chloride decreased: Affected/At Risk (%) (Cohort 2 200 mg BID): (6.25%) | Blood cholesterol increased: # Events (Cohort 2 200 mg BID): 0 | Blood cholesterol increased: Affected/At Risk (Cohort 2 200 mg BID): 0/16 | Blood cholesterol increased: Affected/At Risk (%) (Cohort 2 200 mg BID): (0%) | Blood creatine increased: # Events (Cohort 2 200 mg BID): 1 | Blood creatine increased: Affected/At Risk (Cohort 2 200 mg BID): 1/16 | Blood creatine increased: Affected/At Risk (%) (Cohort 2 200 mg BID): (6.25%) | Blood creatine phosphokinase increased: # Events (Cohort 2 200 mg BID): 0 | Blood creatine phosphokinase increased: Affected/At Risk (Cohort 2 200 mg BID): 0/16 | Blood creatine phosphokinase increased: Affected/At Risk (%) (Cohort 2 200 mg BID): (0%) | Blood creatinine increased: # Events (Cohort 2 200 mg BID): 1 | Blood creatinine increased: Affected/At Risk (Cohort 2 200 mg BID): 1/16 | Blood creatinine increased: Affected/At Risk (%) (Cohort 2 200 mg BID): (6.25%) | Blood loss anaemia: # Events (Cohort 2 200 mg BID): 0 | Blood loss anaemia: Affected/At Risk (Cohort 2 200 mg BID): 0/16 | Blood loss anaemia: Affected/At Risk (%) (Cohort 2 200 mg BID): (0%) | Bronchial secretion retention: # Events (Cohort 2 200 mg BID): 1 | Bronchial secretion retention: Affected/At Risk (Cohort 2 200 mg BID): 1/16 | Bronchial secretion retention: Affected/At Risk (%) (Cohort 2 200 mg BID): (6.25%) | Bronchitis: # Events (Cohort 2 200 mg BID): 0 | Bronchitis: Affected/At Risk (Cohort 2 200 mg BID): 0/16 | Bronchitis: Affected/At Risk (%) (Cohort 2 200 mg BID): (0%) | Bronchoscopy: # Events (Cohort 2 200 mg BID): 0 | Bronchoscopy: Affected/At Risk (Cohort 2 200 mg BID): 0/16 | Bronchoscopy: Affected/At Risk (%) (Cohort 2 200 mg BID): (0%) | Catheter site haemorrhage: # Events (Cohort 2 200 mg BID): 0 | Catheter site haemorrhage: Affected/At Risk (Cohort 2 200 mg BID): 0/16 | Catheter site haemorrhage: Affected/At Risk (%) (Cohort 2 200 mg BID): (0%) | Chills: # Events (Cohort 2 200 mg BID): 1 | Chills: Affected/At Risk (Cohort 2 200 mg BID): 1/16 | Chills: Affected/At Risk (%) (Cohort 2 200 mg BID): (6.25%) | Chronic kidney disease: # Events (Cohort 2 200 mg BID): 0 | Chronic kidney disease: Affected/At Risk (Cohort 2 200 mg BID): 0/16 | Chronic kidney disease: Affected/At Risk (%) (Cohort 2 200 mg BID): (0%) | Conjunctival haemorrhage: # Events (Cohort 2 200 mg BID): 1 | Conjunctival haemorrhage: Affected/At Risk (Cohort 2 200 mg BID): 1/16 | Conjunctival haemorrhage: Affected/At Risk (%) (Cohort 2 200 mg BID): (6.25%) | Conjunctivitis: # Events (Cohort 2 200 mg BID): 1 | Conjunctivitis: Affected/At Risk (Cohort 2 200 mg BID): 1/16

From patent publication US20250255867A1 (Kadmon Corporation, LLC, priority 2022, published 2025)
